Assay results reported in patent US9963445B2, “Chemical compounds” (SYNGENTA PARTICIPATIONS AG, priority 2013, dated 2018).

Tests used:
Format in all cases: in vivo
Amaranthus retroflexus [1] = assay: Pre-emergence herbicidal activity, glasshouse pot test; settings: pre-emergence spray, rate 1000 g/ha, evaluated after 13 days, scale 0-5
How it was run: (§1)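 Seeds sown in standard soil were sprayed one day after sowing, before emergence, with compound formulated in acetone/water (50:50) plus 0.5% Tween 20. Plants were grown at 24/16 °C day/night, 14 h light, 65% humidity, watered twice daily, and damage was scored after 13 days (0 = none, 5 = total).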

Abutilon theophrasti [2] = assay: as above; settings: pre-emergence spray, rate 1000 g/ha, evaluated after 13 days, scale 0-5
How it was run: as §1

zea mays [3] = assay: as above; settings: pre-emergence spray, rate 1000 g/ha, evaluated after 13 days, scale 0-5
How it was run: as §1

Echinochloa crus-galli [4] = assay: as above; settings: pre-emergence spray, rate 1000 g/ha, evaluated after 13 days, scale 0-5
How it was run: as §1

Alopecurus myosuroides [5] = assay: as above; settings: pre-emergence spray, rate 1000 g/ha, evaluated after 13 days, scale 0-5
How it was run: as §1

Setaria faberi [6] = assay: as above; settings: pre-emergence spray, rate 1000 g/ha, evaluated after 13 days, scale 0-5
How it was run: as §1

Amaranthus retroflexus [7] = assay: Post-emergence herbicidal activity, glasshouse pot test; design: key: 0 = no damage to plant, 5 = total damage to plant; settings: Application post-emergence, rate 1000 g/ha, evaluated after 13 days
How it was run: (§2)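 After 8 days of glasshouse growth at 24/16 °C day/night, potted plants receive a foliar spray of the formulated compound (0.5% Tween 20 in acetone/water). They are then watered twice daily under unchanged conditions, and phytotoxicity is scored 0–5 after 13 days.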

Abutilon theophrasti [8] = assay: as above; design: key: 0 = no damage to plant, 5 = total damage to plant; settings: Application post-emergence, rate 1000 g/ha, evaluated after 13 days
How it was run: as §2

zea mays [9] = assay: as above; design: key: 0 = no damage to plant, 5 = total damage to plant; settings: Application post-emergence, rate 1000 g/ha, evaluated after 13 days
How it was run: as §2

Echinochloa crus-galli [10] = assay: as above; design: key: 0 = no damage to plant, 5 = total damage to plant; settings: Application post-emergence, rate 1000 g/ha, evaluated after 13 days
How it was run: as §2

Alopecurus myosuroides [11] = assay: as above; design: key: 0 = no damage to plant, 5 = total damage to plant; settings: Application post-emergence, rate 1000 g/ha, evaluated after 13 days
How it was run: as §2

Setaria faberi [12] = assay: as above; design: key: 0 = no damage to plant, 5 = total damage to plant; settings: Application post-emergence, rate 1000 g/ha, evaluated after 13 days
How it was run: as §2

Row | Structure (SMILES) | AMARE damage score, application pre-emergence (Amaranthus retroflexus [1]) | ABUTH damage score, application pre-emergence (Abutilon theophrasti [2]) | ZEAMX damage score, application pre-emergence (zea mays [3]) | ECHCG damage score, application pre-emergence (Echinochloa crus-galli [4]) | ALOMY damage score, application pre-emergence (Alopecurus myosuroides [5]) | SETFA damage score, application pre-emergence (Setaria faberi [6]) | AMARE herbicidal damage score (Amaranthus retroflexus [7]) | ABUTH herbicidal damage score (Abutilon theophrasti [8]) | ZEAMX herbicidal damage score (zea mays [9]) | ECHCG herbicidal damage score (Echinochloa crus-galli [10]) | ALOMY herbicidal damage score (Alopecurus myosuroides [11]) | SETFA herbicidal damage score (Setaria faberi [12])
1 | CC1=C(Cl)C(=O)N(c2cc(C3(C#N)CC3)ncn2)C1O (stereo not drawn) [CF17] | 5 | 2 | 2 | 3 | 3 | 5 | 5 | 5 | 3 | 5 | 4 | 5
2 | CC1=C(Cl)C(=O)N(c2cc(C(C)C#N)ncn2)C1O (stereo not drawn) [CF18] | 1 | 1 | 0 | 1 | 4 | 3 | 2 | 4 | 1 | 2 | 3 | 3
3 | CC1=C(Cl)C(=O)N(c2cc(C(C)C)ncn2)C1O (stereo not drawn) [CF19] | 5 | 5 | 2 | 4 | 2 | 4 | 5 | 5 | 3 | 5 | 3 | 5
4 | CC1=C(Cl)C(=O)N(c2cc(N(C)C)ncn2)C1O (stereo not drawn) [CF20] | 3 | 0 | 2 | 3 | 1 | 1 | 5 | 4 | 0 | 4 | 4 | 5
5 | COc1cc(N2C(=O)C(Cl)=C(C)C2O)ncn1 (stereo not drawn) [CF21] | 4 | 1 | 2 | 5 | 2 | 4 | 3 | 3 | 3 | 5 | 4 | 5
6 | CCCC1=C(Cl)C(=O)N(c2cc(C(C)(C)C#N)ncn2)C1O (stereo not drawn) [CF22] | 5 | 5 | 2 | 5 | 2 | 4 | 5 | 5 | 3 | 5 | 5 | 5
7 | CC1=C(Br)C(=O)N(c2cc(C(F)(F)F)ncn2)C1O (stereo not drawn) [CG1] | 1 | 4 | 0 | 5 | 3 | 4 | 2 | 4 | 3 | 5 | 5 | 5
8 | CCC1=C(Br)C(=O)N(c2cc(C(C)(C)C#N)ncn2)C1O (stereo not drawn) [CG2] | 4 | 5 | 2 | 4 | 2 | 3 | 5 | 5 | 5 | 5 | 5 | 5
9 | CC1=C(Br)C(=O)N(c2cc(C(C)(C)C#N)ncn2)C1O (stereo not drawn) [CG3] | 5 | 4 | 3 | 4 | 4 | 5 | 5 | 5 | 3 | 5 | 5 | 5
10 | COC1=C(OC)C(O)N(c2cc(C(F)(F)F)ncn2)C1=O (stereo not drawn) [CK4] | 4 | 5 | 3 | 4 | 4 | 5 | 3 | 5 | 4 | 5 | 5 | 5
11 | CC1=C(Cl)C(=O)N(c2nccc(C(F)(F)F)n2)C1O (stereo not drawn) [DF1] | 5 | 4 | 2 | 4 | 4 | 4 | 5 | 5 | 4 | 5 | 4 | 5
12 | CC1=C(Cl)C(=O)N(c2nccc(C(C)(C)C)n2)C1O (stereo not drawn) [DF2] | 5 | 5 | 2 | 5 | 4 | 5 | 5 | 5 | 1 | 5 | 5 | 5
13 | CCOc1nc(N2C(=O)C(Cl)=C(C)C2O)ncc1C#N (stereo not drawn) [DF4] | 0 | 0 | 0 | 0 | 0 | 0 | 0 | 0 | 0 | 0 | 0 | 0
14 | CC1=C(Cl)C(=O)N(c2nccc(C(C)(C)C#N)n2)C1O (stereo not drawn) [DF5] | 5 | 5 | 3 | 5 | 4 | 4 | 5 | 5 | 3 | 5 | 4 | 4
15 | CC1=C(Cl)C(=O)N(c2ncc(C#N)c(C(C)(C)C)n2)C1O (stereo not drawn) [DF6] | 5 | 2 | 2 | 4 | 3 | 4 | 5 | 5 | 1 | 5 | 4 | 5
16 | COC1=C(C)C(O)N(c2nccc(C(C)(C)C)n2)C1=O (stereo not drawn) [DI1] | 5 | 5 | 2 | 5 | 3 | 5 | 5 | 5 | 1 | 5 | 5 | 5
